Series [1] deals with platelet aggregation triggered by AA. As to the kind of experiment: Arachidonic acid (AA)-induced platelet aggregation, whole blood aggregometry. Format: cell-based, human. To be noted: human whole blood; for IC50: Platelet. The procedure:
Blood from 20 non-smoking, young (aged from 22 to 45 years, median 27), healthy volunteers was collected by venipuncture into plastic tubes containing heparin sodium (170 IU/10 mL; Zentiva, Prague, Czech Republic). No medication had been taken by volunteers 14 days prior blood collection and no alcohol had been consumed 12 h before the blood draw.
A total of 300 µL of whole blood was diluted with the same volume of 0.9 % sodium chloride (B.Braun, Melsungen, Germany) preheated to 37 °C and incubated with 5 µL of a tested compound dissolved in DMSO (Penta, Prague, Czech Republic) at a final concentration of 0.8% for 3 min at 37 °C. Platelet aggregation was then induced by addition of collagen (Diagnostica a.s., Czech Republic), arachidonic acid (AA) or Thrombin Receptor Activating Peptide (TRAP) (Roche Holding AG, Basel, Switzerland) and monitored for 6 min. The dose of inducer was initially set to the minimal concentration which caused maximal aggregation. The second calibration was carried out by use of standards, 4-methylcatechol in the case of AA- and collagen-triggered aggregation (Sigma-Aldrich) or vorapaxar for thrombin aggregation (Selleck Chemicals GmbH, Munich, Germany). […] For comparison, also the clinically used standard ASA was employed.

Series [2] concerns platelet aggregation induced by collagen. The experiment in a line: Collagen-induced platelet aggregation, whole blood aggregometry. Format: cell-based, human. The settings on record: Platelet; human whole blood; read-out: IC25 (Mean ± SD, μM) on Collagen-Induced Platelet Aggregation. The procedure:
Blood from 20 non-smoking, young (aged from 22 to 45 years, median 27), healthy volunteers was collected by venipuncture into plastic tubes containing heparin sodium (170 IU/10 mL; Zentiva, Prague, Czech Republic). No medication had been taken by volunteers 14 days prior blood collection and no alcohol had been consumed 12 h before the blood draw. The protocol was approved by the Ethics Committee of the Faculty of Pharmacy, Charles University on May 31, 2019.
A total of 300 µL of whole blood was diluted with the same volume of 0.9 % sodium chloride (B.Braun, Melsungen, Germany) preheated to 37 °C and incubated with 5 µL of a tested compound dissolved in DMSO (Penta, Prague, Czech Republic) at a final concentration of 0.8% for 3 min at 37 °C. Platelet aggregation was then induced by addition of collagen (Diagnostica a.s., Czech Republic), arachidonic acid (AA) or Thrombin Receptor Activating Peptide (TRAP) (Roche Holding AG, Basel, Switzerland) and monitored for 6 min. The dose of inducer was initially set to the minimal concentration which caused maximal aggregation. The second calibration was carried out by use of standards, 4-methylcatechol in the case of AA- and collagen-triggered aggregation (Sigma-Aldrich) or vorapaxar for thrombin aggregation (Selleck Chemicals GmbH, Munich, Germany). The final concentrations of inducers were in the range of 0.16–2.42 µg/mL for collagen, 25–196 µM for AA and 0.8–9.8 µM for TRAP. For comparison, also the clinically used standard ASA was employed.

The subject of the next series is Nrf2. To be noted: cited from earlier work.
The test system of series [3] is anti-inflammatory activity. Details: method as in PMID 30614688, doi:10.1016/j.jff.2019.01.047. The settings on record: 10 μM; cited from earlier work.
The subject of the next series is hepatic HepG2. Set-up: method as in PMID 35547925, PMID 30614688, doi:10.1016/j.jff.2019.01.047. The settings on record: cited from earlier work.
In series [4] the test system is human monocytic cell line THP-1. Set-up: method as in PMID 35547925, PMID 30614688, doi:10.1016/j.jff.2019.01.047. To be noted: cited from earlier work.
Details of series [5]: method as in PMID 10956160, PMID 12065208. The settings on record: chronic high dose studies; cited from earlier work.
The subject of another series is rats. Set-up: method as in PMID 10956160, PMID 12065208. To be noted: cited from earlier work.
The subject of the next series is mice. Set-up: method as in PMID 10956160, PMID 12065208. The settings on record: cited from earlier work.
Setting [6] is: class assigned by colour of the drawn structure, read-out: IC50 class, colour key of Figure 3.
[7] abbreviates: read-out: IC50 (Mean ± SD, μM) on Arachidonic Acid-induced Platelet Aggregation.

Where “and” joins values, the source holds several entries; their conditions need not be identical. Identical values can stand only once. Entries after “also recorded” stand apart in the source; their conditions may differ. Like-named read-outs stand apart in the source and are kept apart here.

Consider `CCc1ccc(O)c(OC)c1` [2-methoxy-4-ethylphenol], for which the IC50 was under 3 µM in series [1] (setting [6]) and 1.37 ± 0.28 µM in series [1] (setting [7]). For the same compound, in series [2], the 25% effect concentration (IC25) amounted to 5.07 ± 4.05 µM. The “Activation of the Nrf2 pathway after its suppression by lipopolysaccharide” value in the series with Nrf2 (10 μM) was “activated the Nrf2 pathway”. The “Activation of the Nrf2 pathway” value with Nrf2 (only concentrations higher than 650 μM were tested) is “activated the Nrf2 pathway”. For the same compound, the Anti-inflammatory activity result in series [3] is “anti-inflammatory activity was observed”. Further, the “Concentration from which mildly toxic” value with hepatic HepG2 was “about 660 μM and ~100 mg/L”. Moreover, in [4], the “Concentration below which toxicity was not observed” value was at least 5000 µM.

`C=CCc1ccc(OC)c(OC)c1` [4-allyl-1,2-dimethylcatechol, 4-allyl-1,2-dimethoxybenzene]: the IC50 in series [1] (setting [6]) was over 100 µM; in series [1] (setting [7]), about 61 µM. The “Activity towards AA-induced aggregation (in words)” value in series [1] was “inactive; also recorded: inactive or only weakly active”. The Rat plasma levels in [5] is 4–46 μM and 0.66–8.25 μg/mL. The Tumors result with rats and in the series with mice was “elicited liver but also other tumors” each time.

Source of the values: PMC8774223, “Comparison of Antiplatelet Effects of Phenol Derivatives in Humans” (Biomolecules, 2022).
